According to US7462625B2, “Gonadotropin-releasing hormone receptor antagonists and methods relating thereto” (Neurocrine Biosciences, Inc., priority 2000, dated 2008):

Target: T1, GnRH receptor (Homo sapiens, UniProt P30968)
T1 construct: expressed in transfected cells
T1 sequence (P30968 1-328): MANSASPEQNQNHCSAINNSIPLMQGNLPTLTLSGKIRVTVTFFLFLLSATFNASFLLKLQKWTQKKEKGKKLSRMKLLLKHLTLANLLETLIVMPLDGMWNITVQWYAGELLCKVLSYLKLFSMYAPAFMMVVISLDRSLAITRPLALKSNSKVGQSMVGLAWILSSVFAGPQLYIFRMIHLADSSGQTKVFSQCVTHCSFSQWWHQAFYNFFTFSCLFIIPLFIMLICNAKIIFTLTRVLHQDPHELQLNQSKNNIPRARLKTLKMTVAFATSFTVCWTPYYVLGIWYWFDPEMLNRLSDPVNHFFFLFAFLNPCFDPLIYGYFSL
Experiment: GnRH receptor membrane binding assay
Conditions: not given
Experimental: Radio-Iodination of GnRH Peptide
The GnRH analog is labeled by the chloramine-T method. […] The reaction is stopped by the addition of 60 μg sodium metabisulfite and the free iodine is removed by passing the iodinated mixture through a C-8 Sep-Pak cartridge (Millipore Corp., Milford, Mass.). The peptide is eluted with a small volume of 80% acetonitrile/water. […] The purified radioactive peptide is stored in 0.1% BSA/20% acetonitrile/0.1% TFA at −80° C. and can be used for up to 4 weeks.
GnRH Receptor Membrane Binding Assay
Cells stably, or transiently, transfected with GnRH receptor expression vectors are harvested, resuspended in 5% sucrose and homogenized using a polytron homogenizer (2×15 sec). Nucleii are removed by centrifugation (3000×g for 5 min.), and the supernatant centrifuged (20,000×g for 30 min, 4° C.) to collect the membrane fraction. The final membrane preparation is resuspended in binding buffer (10 mM Hepes (pH 7.5), 150 mM NaCl, and 0.1% BSA) and stored at −70° C. Binding reactions are performed in a Millipore MultiScreen 96-well filtration plate assembly with polyethylenimine coated GF/C membranes. […] The reaction is terminated after 90 minutes by application of vacuum and washing (2×) with phosphate buffered saline. Bound radioactivity is measured using 96-well scintillation counting (Packard Topcount) or by removing the filters from the plate and direct gamma counting. Ki values are calculated from competition binding data using non-linear least squares regression using the Prism software package (GraphPad Software).

Ki	SMILES
< 100 nM	COc1cccc(-c2c(C)n(Cc3c(F)cccc3F)c(=O)n(CCN(C)CCc3ccccn3)c2=O)c1F [9-24]

Same assay, conditions: GnRH receptor membrane binding assay, [125I]-labeled GnRH peptide; read-out: Ki

SMILES	Ki
COc1cccc(-c2c(C)n(Cc3c(F)cccc3F)c(=O)n(CC(C)NCc3cccs3)c2=O)c1F (stereo not drawn) [9-621]	< 100 nM
COc1cccc(-c2c(C)n(Cc3c(F)cccc3F)c(=O)n([C@H](C)CNCc3cc(Cl)ccc3O)c2=O)c1F [9-503]	< 100 nM
COc1cccc(-c2c(C)n(Cc3c(F)cccc3F)c(=O)n(CC(C)NCc3cc(C)c(C)o3)c2=O)c1F (stereo not drawn) [9-595]	< 100 nM
Cc1ccc(-c2c(C)n(Cc3c(F)cccc3F)c(=O)n(C[C@H](N)c3ccccc3)c2=O)s1 [8-106]	< 100 nM
Cc1c(-c2ccccc2F)c(=O)n(CCN2CCN(C(=O)OCc3ccccc3)CC2)c(=O)n1Cc1c(F)cccc1F [9-58]	< 100 nM
Cc1c(-c2ccc3c(c2)OCO3)c(=O)n(CCN(C)CCc2ccccn2)c(=O)n1Cc1c(F)cccc1F [3-1]	< 100 nM
Cc1cc(=O)n(C[C@@H](N)CC2CCCCC2)c(=O)n1Cc1c(F)cccc1F [8-12]	< 100 nM
COc1cccc(-c2c(C)n(Cc3c(F)cccc3F)c(=O)n(C[C@@H](NC(C)C)C(C)C)c2=O)c1F [9-712]	< 100 nM
Cc1c(-c2ccc3c(c2)OCCO3)c(=O)n(CCN2CC(C)OC(C)C2)c(=O)n1Cc1c(F)cccc1F (stereo not drawn) [9-96]	< 100 nM
COc1cccc(-c2c(C)n(Cc3c(F)cccc3F)c(=O)n([C@H](C)CNCc3ccc4c(c3)CCO4)c2=O)c1F [9-495]	< 100 nM
Cc1c(-c2ccccc2F)c(=O)n(CCNC2CCC(C)CC2)c(=O)n1Cc1c(F)cccc1F (stereo not drawn) [9-149]	< 100 nM
COc1cccc(-c2c(C)n(Cc3c(F)cccc3F)c(=O)n([C@H](C)CNCc3c(F)cccc3Cl)c2=O)c1 [9-514]	< 100 nM
COc1cccc(-c2c(C)n(Cc3c(F)cccc3F)c(=O)n(CC(C)NC(C)C(C)C)c2=O)c1F (stereo not drawn) [9-399]	< 100 nM
COc1cccc(-c2c(C)n(Cc3c(F)cccc3F)c(=O)n(CC(C)NCc3cccn3C)c2=O)c1F (stereo not drawn) [9-618]	< 100 nM
Cc1c(-c2ccc3c(c2)OCO3)c(=O)n(CCN2CCN(c3cccc(Cl)c3)CC2)c(=O)n1Cc1c(F)cccc1F [9-70]	< 100 nM
Cc1c(-c2ccc3c(c2)OCO3)c(=O)n(CCNCCN(C)C)c(=O)n1Cc1c(F)cccc1F [9-242]	< 100 nM
COc1cccc(-c2c(C)n(Cc3c(F)cccc3F)c(=O)n(CC3CCCN3)c2=O)c1 (stereo not drawn) [9-26]	< 100 nM
CCCN(CCn1c(=O)c(-c2ccc(C(C)C)cc2)c(C)n(Cc2c(F)cccc2F)c1=O)C(C)CC (stereo not drawn) [9-86]	< 100 nM
CCC(C)NC(=O)[C@@H]1CCCN1CCn1c(=O)c(-c2cccc(OC)c2)c(C)n(Cc2c(F)cccc2F)c1=O (stereo partly drawn) [9-112]	< 100 nM

SMILES	Ki
COc1cccc(-c2c(C)n(Cc3c(F)cccc3F)c(=O)n(C[C@H](N)C(C)C)c2=O)c1F [8-25]	< 100 nM
COc1cccc(-c2c(C)n(Cc3c(F)cccc3F)c(=O)n(CCN3CCC[C@@H]3CO)c2=O)c1 [9-4]	< 100 nM
Cc1c(-c2ccc3c(c2)OCO3)c(=O)n(CCN2CCN(c3cccc(C(F)(F)F)c3)CC2)c(=O)n1Cc1c(F)cccc1F [9-361]	< 100 nM
Cc1c(-c2cccs2)c(=O)n(C[C@H](N)c2ccccc2)c(=O)n1Cc1c(F)cccc1F [8-107]	< 100 nM
COc1cccc(-c2c(C)n(Cc3c(F)cccc3F)c(=O)n([C@H](C)CNCc3c[nH]c4ccccc34)c2=O)c1F [9-509]	< 100 nM
Cc1ccc(N2CCN(CCn3c(=O)c(-c4ccc5c(c4)OCCO5)c(C)n(Cc4c(F)cccc4F)c3=O)CC2)cc1 [9-281]	< 100 nM
COc1cccc(-c2c(C)n(Cc3c(F)cccc3F)c(=O)n(C[C@H](C)NCc3cccn3C)c2=O)c1F [9-664]	< 100 nM
CCc1ccc(CN[C@@H](C)Cn2c(=O)c(-c3cccc(OC)c3F)c(C)n(Cc3c(F)cccc3F)c2=O)o1 [9-665]	< 100 nM
Cc1c(-c2ccc3c(c2)OCCO3)c(=O)n(CCN2CCN(c3ccccc3)CC2)c(=O)n1Cc1c(F)cccc1F [9-199]	< 100 nM
COc1cccc(-c2c(C)n(Cc3c(F)cccc3F)c(=O)n(CCN3CC[C@@H](NC(C)=O)C3)c2=O)c1 [9-7]	< 100 nM
CCc1c(-c2cccc(OC)c2F)c(=O)n(C[C@H](N)c2ccccc2)c(=O)n1Cc1c(F)cccc1F [15-1]	< 100 nM
Cc1c(-c2ccc(C(C)C)cc2)c(=O)n(CCN2CCN(c3cccc(Cl)c3)CC2)c(=O)n1Cc1c(F)cccc1F [9-85]	< 100 nM
COc1cccc(-c2c(C)n(Cc3c(F)cccc3F)c(=O)n(CC(C)NCC3CCCCC3)c2=O)c1F (stereo not drawn) [9-589]	< 100 nM
COc1cccc(-c2c(C)n(Cc3c(F)cccc3F)c(=O)n(C[C@H](C)NCCc3ccccn3)c2=O)c1F [9-470]	< 100 nM
COc1cccc(-c2c(C)n(Cc3c(F)cccc3F)c(=O)n(C[C@H](CC(C)C)N(C)C)c2=O)c1F [9-704]	< 100 nM
CCCN(CCC)[C@@H](C)Cn1c(=O)c(-c2cccc(OC)c2F)c(C)n(Cc2c(F)cccc2F)c1=O [9-681]	< 100 nM
Cc1c(-c2ccc3c(c2)OCO3)c(=O)n(CCNC2CCC(C)CC2)c(=O)n1Cc1c(F)cccc1F (stereo not drawn) [9-320]	< 100 nM
Cc1c(-c2ccc3c(c2)OCO3)c(=O)n(CCNCC2CC2)c(=O)n1Cc1c(F)cccc1F [9-245]	< 100 nM

Next, values leading:

Ki	SMILES
< 100 nM	Cc1c(-c2ccc(Oc3ccccc3)cc2)c(=O)n(CCN(Cc2ccccc2)Cc2ccccc2)c(=O)n1Cc1c(F)cccc1F [9-39]
< 100 nM	Cc1c(-c2ccc(Oc3ccccc3)cc2)c(=O)n(CCN2CCN(c3ccccc3)CC2)c(=O)n1Cc1c(F)cccc1F [9-146]
< 100 nM	CCN(CC)CCn1c(=O)c(-c2ccc(Oc3ccccc3)cc2)c(C)n(Cc2c(F)cccc2F)c1=O [9-224]
< 100 nM	Cc1c(-c2ccc(Oc3ccccc3)cc2)c(=O)n(CCN(C)CCc2ccccn2)c(=O)n1Cc1c(F)cccc1F [6-2]
< 100 nM	COc1cccc(-c2c(C)n(Cc3c(F)cccc3F)c(=O)n(CCN(CCc3ccccn3)CC3CC3)c2=O)c1 [1-12]
< 100 nM	Cc1c(-c2ccc(Oc3ccccc3)cc2)c(=O)n(CCNCC(F)(F)F)c(=O)n1Cc1c(F)cccc1F [9-138]
< 100 nM	COc1cccc(-c2c(C)n(Cc3c(F)cccc3F)c(=O)n(CC(C)NCc3ccccn3)c2=O)c1 (stereo not drawn) [9-109]
< 100 nM	COc1cccc(-c2c(C)n(Cc3c(F)cccc3F)c(=O)n(C[C@H](Cc3ccccc3)N(C)C)c2=O)c1F [9-443]
< 100 nM	Cc1ccc(Nc2nc(-c3c(C)n(Cc4c(F)cccc4F)c(=O)n(C[C@H](N)c4ccccc4)c3=O)cs2)cc1 [12-32]
< 100 nM	COc1cccc(-c2c(C)n(Cc3c(F)cccc3F)c(=O)n([C@H](C)CNCc3cccc(F)c3)c2=O)c1 [9-448]
< 100 nM	COc1cccc(-c2c(C)n(Cc3c(F)cccc3F)c(=O)n([C@H](C)CNCc3ccccc3)c2=O)c1 [9-312]
< 100 nM	Cc1c(-c2ccc(Oc3ccccc3)cc2)c(=O)n(CCN2CCCC(C(N)=O)C2)c(=O)n1Cc1c(F)cccc1F (stereo not drawn) [9-37]
< 100 nM	Cc1c(-c2ccc(Oc3ccccc3)cc2)c(=O)n(CCN2CCN(c3cccc(Cl)c3)CC2)c(=O)n1Cc1c(F)cccc1F [9-40]
< 100 nM	COc1ccc(CCNCCn2c(=O)c(-c3ccccc3F)c(C)n(Cc3c(F)cccc3F)c2=O)cc1OC [9-229]
< 100 nM	COc1ccc(Nc2nc(-c3c(C)n(Cc4c(F)cccc4F)c(=O)n(C[C@H](N)c4ccccc4)c3=O)cs2)cc1 [12-10]
< 100 nM	COc1cccc(-c2c(C)n(Cc3c(F)cccc3F)c(=O)n(C[C@H](N)COCc3ccccc3)c2=O)c1F [8-15]
< 100 nM	COc1cccc(-c2c(C)n(Cc3c(F)cccc3F)c(=O)n([C@H](C)CNCc3cccc4ccccc34)c2=O)c1F [9-502]
< 100 nM	COc1ccc(-c2c(C)n(Cc3c(F)cccc3F)c(=O)n(C[C@H](N)c3ccccc3)c2=O)cn1 [8-58]
< 100 nM	COc1cccc(-c2c(C)n(Cc3c(F)cccc3F)c(=O)n([C@H](C)CNCc3ccccc3F)c2=O)c1 [9-446]
< 100 nM	COc1cccc(-c2c(C)n(Cc3c(F)cccc3F)c(=O)n(C[C@H](C)NCc3ccccc3)c2=O)c1F [9-304]
< 100 nM	CN[C@@H](Cc1ccccc1)Cn1c(=O)c(-c2cccc(OC)c2F)c(C)n(Cc2c(F)cccc2F)c1=O [9-517]
< 100 nM	Cc1c(-c2ccc(Oc3ccccc3)cc2)c(=O)n(CCNCc2cccc([N+](=O)[O-])c2)c(=O)n1Cc1c(F)cccc1F [9-142]
< 100 nM	COc1cccc(-c2c(C)n(Cc3c(F)cccc3F)c(=O)n(C[C@H](N)C(=O)Nc3ccccc3)c2=O)c1 [8-51]
< 100 nM	Cc1c(-c2ccc(Oc3cccc(Cl)c3)cc2)c(=O)n(C[C@H](N)c2ccccc2)c(=O)n1Cc1c(F)cccc1F [8-70]
< 100 nM	CCc1c(-c2cccc(OC)c2)c(=O)n(C[C@H](N)c2ccccc2)c(=O)n1Cc1c(F)cccc1F [15-2]
